Article PMC4768221, “Subcellular localization of anthracyclines in cultured rat cardiomyoblasts as possible predictors of cardiotoxicity” (Investigational New Drugs, 2015)
Read-outs that look alike come from different tables or passages of the source.

Legend:
[1] = Cytotoxicity assay (MTT, inhibition of cell proliferation); format: cell-based, rat; details: rat
Experimental: (§1) The cytotoxic activity of the drugs was assayed by measuring their inhibitory effects on H9c2(2-1) cell proliferation. To measure the cytotoxicity of doxorubicin, daunorubicin, and their analogs, the tetrazolium dye method was used. Cells were seeded at 1 × 10^4 cells/well in 48-well plates. After 24 h, the cells were incubated with different concentrations of anthracyclines for 72 h in triplicate in a final volume of 1 ml. Then, 50 μl of a sterile aqueous solution of 3-[4,5-dimethylthiazol-2-yl]-2,5-diphenyl-tetrazolium bromide (5 mg/ml) (Sigma-Aldrich) was added to each well for an additional 3 h. The blue formazan precipitate was dissolved in DMSO (Sigma-Aldrich), and the absorbance of solutions was measured at 540 nm. For each experiment, determinations were performed in three replicates. The IC50 values (the anthracycline concentration effective at inhibiting cell growth after exposure to the drug for 72 h) were read from survival curves, which were fitted to an exponential equation using Xact v. 7.2, a statistical software tool by SciLab (Germany).

H9c2(2-1) cells [2] = assay: Cell cycle analysis by flow cytometry; format: cell-based, rat; details: for Cells in G2/M phase / Cells in S phase / Cells in G0/G1 phase: 24 h treatment at equitoxic concentration (IC50); for Cells in G2/M phase: untreated control 8.7 %; for Cells in S phase: untreated control 11 %; for Cells in G0/G1 phase: untreated control 80.1 %; for Cell cycle arrest pattern: 24 h treatment at IC50, data not shown
Experimental: The cell cycle was analyzed by flow cytometry using a Becton-Dickinson FACSCanto II flow cytometer. H9c2(2-1) cells were seeded at 1 × 10^4 cells/cm^2 in 10 cm^2 culture flasks. After the cells were allowed to grow for 24 h, the medium was replaced and the cells were treated with an equitoxic anthracycline concentration corresponding to IC50. Treatment was performed for 24 h, and then the cells were washed in PBS and trypsinized. After the cells were washed in PBS again, they were fixed in 70 % ethanol and incubated for 1 h on ice. Fixed cells were washed twice in PBS, resuspended in commercially available propidium iodide staining solution and then subjected to flow cytometric assay. The percentages of H9c2(2-1) cells present in G1, S, and G2 phases of the cell cycle after drug treatment were analyzed using FACSDiva 6.1 software.

H9c2(2-1) cells [3] = assay: Cellular uptake (fluorimetric, ethanol/HCl extraction); format: cell-based, rat; details: 10 μM, 1 h; for Accumulation relative to parent drug (times higher): vs DOX or DRB
Experimental: Anthracycline uptake was estimated by fluorimetric measurements after the drugs were extracted with an ethanol/HCl mixture as described by Riganti et al.. H9c2(2-1) cells (2 × 10^5) were seeded onto 40 × 11 mm tissue culture dishes for 24 h. Then, the cells were treated in growth medium with 10 μM anthracycline solution at 37 °C for 1 h. After this time, the cells were gently scraped and suspended in 5 ml of ice-cold PBS. The cell suspension aliquots were centrifuged at 1500 rpm for 5 min and then washed twice in ice-cold PBS. Next, cell pellets were collected and resuspended in 2 ml of a 1:1 mixture of ethanol:0.3 M HCl, and the fluorescence intensities of these suspensions were measured at 20 °C using a Perkin-Elmer LS 55 spectrofluorimeter. The optimal excitation and emission wavelengths were 485 and 590 nm, respectively. To estimate the drug concentrations, calibration curves in the concentration range of 0.01–0.5 μM were prepared. Because the fluorescence was quenched slightly in the presence of cells, each point of the calibration curves was measured in the presence of 2 × 10^5 cells suspended in a mixture of ethanol/HCl.

[4] = design: method as in PMID 16158943; details: animal models, compared to DOX and DRB; cited from earlier work
[5] = system: double-stranded calf thymus DNA; assay: Ethidium bromide displacement assay (affinity to DNA); format: binding; details: for Kapp (apparent DNA binding constant): ethidium bromide displacement, mean of three ± S.D.; for Kapp relative to parent drug (times lower): vs DOX or DRB
Experimental: The binding of the anthracyclines to double-stranded calf thymus DNA was tested by the ethidium bromide displacement assay. This method is based on the competition between the tested compound and ethidium bromide for DNA intercalation sites. The fluorescence intensity of ethidium bromide increases upon DNA binding. Addition of a compound displacing intercalated ethidium bromide leads to quenching of the fluorescence of the DNA/ethidium bromide complex. The percentage of initial fluorescence was plotted against the concentration of the added compound, and the IC50 value was read. The IC50 value is defined as the concentration of added compound required to reduce the fluorescence of the DNA/ethidium bromide complex to 50 %. IC50 values were then used to calculate the apparent binding constants of the anthracyclines to DNA.

[6] = system: H9c2(2-1) rat cardiomyoblasts; assay: Cytotoxicity assay (MTT, inhibition of cell proliferation); format: cell-based; details: 72 h
Experimental: as §1

[7] = H9c2(2-1) rat cardiomyoblast cells, H9c2(2-1) cells, 72 h exposure, MTT, mean of six experiments ± S.D., read-out: Cytotoxicity IC50
[8] = H9c2(2-1) cells, 72 h exposure, MTT, mean of six experiments ± S.D., read-out: Cytotoxicity IC50
[9] = H9c2(2-1), parent DOX or DRB vs analog

Structure (SMILES) | IC50 at 72 h [1, 7] [nM] | Cells in G2/M phase (H9c2(2-1) cells [2]) [%] | Cells in S phase (H9c2(2-1) cells [2]) [%] | Cells in G0/G1 phase (H9c2(2-1) cells [2]) [%] | Cellular accumulation higher than DOXM (H9c2(2-1) cells [3]) | Cardiotoxicity in vivo [4] | Kapp (apparent DNA binding constant) [5] | IC50 at 72 h [1, 8] [nM] | Cytotoxic activity of the parent compound relative to this analog (times higher) [6, 9] | Accumulation relative to DOXM (times higher) (H9c2(2-1) cells [3]) [times] | Accumulation relative to parent drug (times higher) (H9c2(2-1) cells [3]) | Kapp relative to parent drug (times lower) [5] | Cell cycle arrest pattern (H9c2(2-1) cells [2]) | Accumulation relative to other tested compounds (times higher) (H9c2(2-1) cells [3]; other than parent DRB) | IC50 at 72 h [1] [nM] | Cytotoxic activity of the parent compound relative to this analog (times higher) ([6]; rat) [times]
COc1cccc2c1C(=O)c1c(O)c3c(c(O)c1C2=O)C[C@@](O)(C(=O)CO)C[C@@H]3O[C@H]1C[C@H](N)[C@H](O)[C@H](C)O1 [DOX, doxorubicin, reference compound] | 35 ± 4 | 40.6 | 9.0 | 50.4 | approximately 30% | most cardiotoxic | 18.1 ± 0.41 × 10^5 [M^-1] |  |  |  |  |  |  |  |  | 
COc1cccc2c1C(=O)c1c(O)c3c(c(O)c1C2=O)C[C@@](O)(C(=O)CO)C[C@@H]3O[C@H]1C[C@H](N=CN2CCCCCC2)[C@H](O)[C@H](C)O1 [DOXH] |  | 13.5 | 36.4 | 50.1 |  | lower cardiotoxicity | 7.30 ± 0.14 × 10^5 [M^-1] | 87 ± 7 | ~2.5 times | ~2 | 1.5 times | 2.5–2.8 times |  |  |  | 
COc1cccc2c1C(=O)c1c(O)c3c(c(O)c1C2=O)C[C@@](O)(C(=O)CO)C[C@@H]3O[C@H]1C[C@H](N=CN2CCOCC2)[C@H](O)[C@H](C)O1 [DOXM] |  | 13.0 | 33.5 | 53.5 |  | lower cardiotoxicity | 0.90 ± 0.12 × 10^5 [M^-1] | 138 ± 18 | approximately 4 times |  |  | approximately 20 times |  |  |  | 
COc1cccc2c1C(=O)c1c(O)c3c(c(O)c1C2=O)C[C@@](O)(C(C)=O)C[C@@H]3O[C@H]1C[C@H](N)[C@H](O)[C@H](C)O1 [DRB, daunorubicin, reference compound] | 76 ± 7 |  |  |  |  | most cardiotoxic | 11.7 ± 0.22 × 10^5 [M^-1] |  |  |  |  |  | G2/M arrest |  |  | 
COc1cccc2c1C(=O)c1c(O)c3c(c(O)c1C2=O)C[C@@](O)(C(C)=O)C[C@@H]3O[C@H]1C[C@H](N=CN2CCCCCC2)[C@H](O)[C@H](C)O1 [DRBH] |  |  |  |  |  | lower cardiotoxicity | 4.1 ± 0.08 × 10^5 [M^-1] | 172 ± 14 | 2 times |  | more than 1.5 times | 2.5–2.8 times | S phase arrest | 5–7 times |  | 
COc1cccc2c1C(=O)c1c(O)c3c(c(O)c1C2=O)C[C@@](O)(C(C)=O)C[C@@H]3O[C@H]1C[C@H](N=CN2CCOCC2)[C@H](O)[C@H](C)O1 [DRBM] |  |  |  |  |  | lower cardiotoxicity | 0.64 ± 0.03 × 10^5 [M^-1] |  |  |  |  | approximately 20 times | S phase arrest |  | 626 ± 18 | 8
